Common to all, as to test: Substrate hydrolysis kinetics (kcat, KM, kcat/KM) of ACC-labeled substrates
Type in all cases: biochemical

Test [1] addresses T1, human recombinant cathepsin B (Homo sapiens, UniProt P07858).
T1 construct: made in house
Conditions: for kcat/KM Cat B: cathepsin B 0.3–0.5 nM, 100 mM sodium acetate, 100 mM NaCl, 10 mM DTT, 1 mM EDTA, Michaelis–Menten, average of at least triplicate; for kcat/KM Cat B / kcat Cat B / Km: pH 5.5, 37 °C, S.D. below 15%; for kcat Cat B / Km: four independent experiments; for Km: read-out: KM Cat B. The protocol:
(§1) All kinetic experiments were performed using a CLARIOStar (BMG LABTECH) plate reader operating in fluorescence kinetic mode using 96-well plates (Corning®, Costar®). ACC-labeled fluorescent substrates were screened at 355 nm (excitation) and 460 nm (emission) wavelengths (gain 650). The cathepsin assay buffer was composed of 100 mM sodium acetate, 100 mM sodium chloride, 10 mM DTT, 1 mM EDTA, pH 5.5. All kinetic studies were performed at 37 °C.
(§2) The kinetic parameters for all ACC-labeled substrates were determined using Michaelis–Menten kinetic according to the protocol described by Poreba et al.[41] […] All experiments were performed at least in triplicate and the results are presented as average values (S.D. for all tested substrates was below 15%).

For test [2], the target named is T2, human recombinant cathepsin L (Homo sapiens, UniProt P07711).
T2 construct: with a 100 nM final concentration of each active cathepsin for 30 min; made in house
T2 sequence (P07711 114-333): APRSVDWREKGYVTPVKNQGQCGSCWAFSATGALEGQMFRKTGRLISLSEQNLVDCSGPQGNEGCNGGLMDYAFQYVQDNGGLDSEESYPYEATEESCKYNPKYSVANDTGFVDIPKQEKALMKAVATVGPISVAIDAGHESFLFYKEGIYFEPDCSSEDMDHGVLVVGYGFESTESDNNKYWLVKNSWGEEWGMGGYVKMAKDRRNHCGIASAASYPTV
As to conditions: pH 5.5, 37 °C, S.D. below 15%; for kcat/KM Cat L: cathepsin L 250 nM, Michaelis–Menten, average of at least triplicate; for kcat Cat L / Km: four independent experiments; for Km: read-out: KM Cat L. The protocol:
as §1, §2

The target in test [3] is T3, human recombinant cathepsin S (Homo sapiens, UniProt P25774).
T3 construct: with a 100 nM final concentration of each active cathepsin for 30 min; made in house
T3 sequence (P25774 115-331): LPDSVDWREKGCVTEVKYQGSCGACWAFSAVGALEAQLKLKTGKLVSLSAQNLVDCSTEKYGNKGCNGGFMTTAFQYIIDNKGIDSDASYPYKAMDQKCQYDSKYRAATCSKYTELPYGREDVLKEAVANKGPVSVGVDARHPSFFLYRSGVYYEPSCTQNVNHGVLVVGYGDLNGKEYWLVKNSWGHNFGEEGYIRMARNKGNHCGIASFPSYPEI
As to conditions: pH 5.5, 37 °C, S.D. below 15%; for kcat/KM Cat S: cathepsin S 150 nM, Michaelis–Menten, average of at least triplicate; for kcat Cat S / Km: four independent experiments; for Km: read-out: KM Cat S. The protocol:
as §1, §2

Test [4] deals with T4, human recombinant cathepsin K (Homo sapiens, UniProt P43235).
T4 construct: with a 100 nM final concentration of each active cathepsin for 30 min; made in house
T4 sequence (P43235 115-329): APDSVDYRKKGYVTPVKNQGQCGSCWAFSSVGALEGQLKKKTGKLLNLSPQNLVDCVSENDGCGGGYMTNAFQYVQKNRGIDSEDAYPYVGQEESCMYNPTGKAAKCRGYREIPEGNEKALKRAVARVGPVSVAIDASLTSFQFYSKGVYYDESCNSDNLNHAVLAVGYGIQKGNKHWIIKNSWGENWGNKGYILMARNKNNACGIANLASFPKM
Conditions: pH 5.5, 37 °C, S.D. below 15%; for kcat/KM Cat K: cathepsin K 320 nM, Michaelis–Menten, average of at least triplicate; for kcat Cat K / Km: four independent experiments; for Km: read-out: KM Cat K. The protocol:
as §1, §2

Test [5] addresses T5, human recombinant cathepsin V (Homo sapiens, UniProt O60911).
T5 construct: with a 100 nM final concentration of each active cathepsin for 30 min; made in house
Conditions: pH 5.5, 37 °C, S.D. below 15%; for kcat/KM Cat V: cathepsin V 200 nM, Michaelis–Menten, average of at least triplicate; for kcat Cat V / Km: four independent experiments; for Km: read-out: KM Cat V. The protocol:
as §1, §2

For orientation: Km means the concentration of substrate that gives half-maximal velocity.

“And” between values parts separate entries of the source, which are not always exact repeats. Equal values may be shown once. Square brackets hold non-standard residues; d marks the D form. * marks the point of attachment. Phe(4-Cl) = N[C@@H](Cc1ccc(Cl)cc1)C(=O)O; ACC = NC(=O)Cc1cc(=O)oc2cc(N*)ccc12; hTyr = N[C@@H](CCc1ccc(O)cc1)C(=O)O; hPhe = N[C@@H](CCc1ccccc1)C(=O)O; Cha = N[C@@H](CC1CCCCC1)C(=O)O; AMC = Cc1cc(=O)oc2cc(N*)ccc12; hLeu = CC(C)CC[C@H](N)C(=O)O; hSer = N[C@@H](CCO)C(=O)O; Nle = CCCC[C@H](N)C(=O)O; Nva = CCC[C@H](N)C(=O)O; Cbz = O=C(OCc1ccccc1)*; OBn = c1ccc(CO*)cc1; Bn = c1ccc(C*)cc1 Some results are limits rather than exact numbers.

T5 sequence (O60911 114-334): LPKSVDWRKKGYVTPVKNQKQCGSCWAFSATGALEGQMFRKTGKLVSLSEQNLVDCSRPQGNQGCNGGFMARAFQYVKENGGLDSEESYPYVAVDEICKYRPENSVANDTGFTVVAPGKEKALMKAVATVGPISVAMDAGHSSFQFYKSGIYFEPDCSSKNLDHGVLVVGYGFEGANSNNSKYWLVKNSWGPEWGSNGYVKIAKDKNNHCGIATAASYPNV

As for “Ac-[hTyr]LE(OBn)R-{ACC} (SMILES CC(=O)N[C@@H](CCc1ccc(O)cc1)C(=O)N[C@@H](CC(C)C)C(=O)N[C@@H](CCC(=O)OCc1ccccc1)C(=O)N[C@@H](CCCNC(=N)N)C(=O)Nc1ccc2c(CC(N)=O)cc(=O)oc2c1) [ACC-labeled tetrapeptide substrate]”, the “kcat/KM Cat B” value in test [1] is 2,760,000 M^-1s^-1. The “kcat/KM Cat L” value in test [2] is 1,170 M^-1s^-1. In test [3], the “kcat/KM Cat S” value is 41 M⁻¹ s⁻¹. Besides, the “kcat/KM Cat K” value in test [4] is 14 M⁻¹ s⁻¹. The “kcat/KM Cat V” value in test [5] was 692 M⁻¹ s⁻¹.
The like results for “Ac-[hPhe]LE(OBn)R-{ACC} (SMILES CC(=O)N[C@@H](CCc1ccccc1)C(=O)N[C@@H](CC(C)C)C(=O)N[C@@H](CCC(=O)OCc1ccccc1)C(=O)N[C@@H](CCCNC(=N)N)C(=O)Nc1ccc2c(CC(N)=O)cc(=O)oc2c1) [ACC-labeled tetrapeptide substrate]” were, in that order, 2,100,000 M^-1s^-1, 726 M⁻¹ s⁻¹, 37 M⁻¹ s⁻¹, 12 M⁻¹ s⁻¹ and 829 M⁻¹ s⁻¹.
On to “Ac-hLeu-Nle-Glu(Chx)-Arg-ACC [ACC-labeled tetrapeptide substrate]”, for which the “kcat/KM Cat B” value in test [1] was 2,600,000 M^-1s^-1. In addition, in test [2], the “kcat/KM Cat L” value turned out to be 769 M⁻¹ s⁻¹. For the same substance, the “kcat/KM Cat S” value in test [3] turned out to be 25 M⁻¹ s⁻¹. Moreover, the “kcat/KM Cat K” value in test [4] stood at 11 M⁻¹ s⁻¹. In addition, the “kcat/KM Cat V” value in test [5] is 1,310 M^-1s^-1.
As to “Ac-[Cha]LE(OBn)R-{ACC} (SMILES CC(=O)N[C@@H](CC1CCCCC1)C(=O)N[C@@H](CC(C)C)C(=O)N[C@@H](CCC(=O)OCc1ccccc1)C(=O)N[C@@H](CCCNC(=N)N)C(=O)Nc1ccc2c(CC(N)=O)cc(=O)oc2c1)”, in test [1], the “kcat/KM Cat B” value is on record as 3,100,000 M^-1s^-1, the “kcat Cat B” value is 344 s⁻¹ and the Km came to 115 µM. For the same substance, the “selectivity for cathepsin B in comparison with cathepsin S” value in test [1] (from kcat/KM) was ~60 000 fold. Moreover, in test [2], the “kcat/KM Cat L” value was determined as 744 M⁻¹ s⁻¹, the “kcat Cat L” value is 0.062 s⁻¹ and the Km worked out at 83.5 µM. In test [3], the “kcat/KM Cat S” value was found to be 40 M⁻¹ s⁻¹, the “kcat Cat S” value was under 0.020 s⁻¹ and the Km was over 500 µM. In addition, in test [4], the “kcat/KM Cat K” value was 14 M⁻¹ s⁻¹, the “kcat Cat K” value is under 0.007 s⁻¹ and the Km is over 500 µM. Also, in test [5], the “kcat/KM Cat V” value stood at 949 M⁻¹ s⁻¹, the “kcat Cat V” value is 0.034 s⁻¹ and the Km amounted to 35.1 µM.
As for “Ac-[Nva][Cha]E(OBn)R-{ACC} (SMILES CCC[C@H](NC(C)=O)C(=O)N[C@@H](CC1CCCCC1)C(=O)N[C@@H](CCC(=O)OCc1ccccc1)C(=O)N[C@@H](CCCNC(=N)N)C(=O)Nc1ccc2c(CC(N)=O)cc(=O)oc2c1) [ACC-labeled tetrapeptide substrate]”, the “kcat/KM Cat B” value in test [1] is listed as 4,090,000 M^-1s^-1. For the same substance, the “kcat/KM Cat L” value in test [2] is on record as 1,140 M^-1s^-1. Also, the “kcat/KM Cat S” value in test [3] amounted to 37 M⁻¹ s⁻¹. In test [4], the “kcat/KM Cat K” value was found to be 30 M⁻¹ s⁻¹. The “kcat/KM Cat V” value in test [5] was 1,420 M^-1s^-1.
As for “Ac-[hLeu][Nle]E(OBn)R-{ACC} (SMILES CCCC[C@H](NC(=O)[C@H](CCC(C)C)NC(C)=O)C(=O)N[C@@H](CCC(=O)OCc1ccccc1)C(=O)N[C@@H](CCCNC(=N)N)C(=O)Nc1ccc2c(CC(N)=O)cc(=O)oc2c1) [ACC-labeled tetrapeptide substrate]”, the “kcat/KM Cat B” value in test [1] was 3,450,000 M^-1s^-1. In test [2], the “kcat/KM Cat L” value was 1,090 M^-1s^-1. Also, the “kcat/KM Cat S” value in test [3] stood at 96 M⁻¹ s⁻¹. Besides, the “kcat/KM Cat K” value in test [4] was found to be 17 M⁻¹ s⁻¹. Besides, the “kcat/KM Cat V” value in test [5] is listed as 1,180 M^-1s^-1.
Turning to “Ac-[Cha]L[hSer](Bn)R-{ACC} (SMILES CC(=O)N[C@@H](CC1CCCCC1)C(=O)N[C@@H](CC(C)C)C(=O)N[C@@H](CCOCc1ccccc1)C(=O)N[C@@H](CCCNC(=N)N)C(=O)Nc1ccc2c(CC(N)=O)cc(=O)oc2c1) [ACC-labeled tetrapeptide substrate]”, in test [1], the “kcat/KM Cat B” value was 4,300,000 M^-1s^-1, the “kcat Cat B” value stood at 390 s⁻¹ and the Km is 90.9 µM. In addition, in test [2], the “kcat/KM Cat L” value is given as 1,040 M^-1s^-1, the “kcat Cat L” value is 0.109 s⁻¹ and the Michaelis-Menten constant (Km) was 105 µM. For the same substance, in test [3], the “kcat/KM Cat S” value is 44 M⁻¹ s⁻¹, the “kcat Cat S” value was under 0.022 s⁻¹ and the Km is over 500 µM. Further, in test [4], the “kcat/KM Cat K” value is 14 M⁻¹ s⁻¹, the “kcat Cat K” value was under 0.007 s⁻¹ and the Michaelis constant (Km) was over 500 µM. For the same substance, in test [5], the “kcat/KM Cat V” value is 518 M⁻¹ s⁻¹, the “kcat Cat V” value is 0.055 s⁻¹ and the Michaelis-Menten constant (Km) was determined as 109 µM.
Cbz-Arg-Arg-{AMC} [reference compound]: the “selectivity for cathepsin B over cathepsin L” value in test [1] (from kcat/KM) is given as 17 fold.
For “Ac-[Phe(4-Cl)]L[hSer](Bn)R-{ACC} (SMILES CC(=O)N[C@@H](Cc1ccc(Cl)cc1)C(=O)N[C@@H](CC(C)C)C(=O)N[C@@H](CCOCc1ccccc1)C(=O)N[C@@H](CCCNC(=N)N)C(=O)Nc1ccc2c(CC(N)=O)cc(=O)oc2c1) [ACC-labeled tetrapeptide substrate]”, the “kcat/KM Cat B” value in test [1] is 3,780,000 M^-1s^-1. Further, the “kcat/KM Cat L” value in test [2] was 1,540 M^-1s^-1. The “kcat/KM Cat S” value in test [3] was determined as 50 M⁻¹ s⁻¹. Besides, the “kcat/KM Cat K” value in test [4] is 12 M⁻¹ s⁻¹. Further, the “kcat/KM Cat V” value in test [5] was 570 M⁻¹ s⁻¹.
As for “Ac-[hLeu][Nle][hSer](Bn)R-{ACC} (SMILES CCCC[C@H](NC(=O)[C@H](CCC(C)C)NC(C)=O)C(=O)N[C@@H](CCOCc1ccccc1)C(=O)N[C@@H](CCCNC(=N)N)C(=O)Nc1ccc2c(CC(N)=O)cc(=O)oc2c1) [ACC-labeled tetrapeptide substrate]”, the “kcat/KM Cat S” value in test [3] was 65 M⁻¹ s⁻¹ and 39 M⁻¹ s⁻¹. Also, the “kcat/KM Cat K” value in test [4] is 16 M⁻¹ s⁻¹ and 19 M⁻¹ s⁻¹.

Values taken from PMC6839509, “Fluorescent probes towards selective cathepsin B detection and visualization in cancer cells and patient samples” (Chemical Science, 2019).
